# According to paper PMC12345137 (mBio, 2025):
# Where two headings read alike, the source gives them in different places. Positions of bridges follow the written chain, without caps; N, C: chain ends. Residues, ends and D or L forms follow the SMILES beside them.
# Experiments:
# SA AgrC-I = SA AgrC-I (Staphylococcus aureus, UniProt O07911); test: β-Lactamase assay, reporter strain RN10829 (P2-agrA:P3-blaZ) with pagrC-I; assay type: cell-based
# Source text: The β-lactamase reporter strain RN10829 (P2-agrA:P3-blaZ) ([62]), with pagrC-I ([63]), pagrC-II, pagrC-III, or pagrC-IV ([11]), substituting the native agr locus with a chromosomal integration of P2-agrA and P3-blaZ and a plasmid from which a wild-type variant of the corresponding AgrC is expressed, was used to assess inhibition and activation of the AgrC receptor via β-lactamase activity in response to varying concentrations of the QS modulating peptides. Overnight cultures of the reporter strains in TSB medium were diluted 1:250 in fresh TSB medium and grown to OD600 = 0.35–0.40 (early exponential phase) at 37°C. Peptide solutions (10 μL) in 1:10 serial dilutions from DMSO stock solutions (1 mM) in TSB medium (final concentrations = 10 μM–10 pM) were added to each well of a clear 96-well plate as well as solutions (10 μL) of cognate AIP (final concentration = 100 nM) in TSB medium followed by 80 μL of bacterial cells. […] The 96-well plates were incubated at 37°C shaking at 200 rpm for 1 h and immediately frozen down at −80°C to minimize growth during nitrocefin treatment. Next, the 96-well plates were thawed, and OD600 values were determined using a plate reader followed by the addition of 50 μL of nitrocefin solution to the wells (final concentration = 33.3 μg/mL). β-Lactamase activity was monitored at OD486 every 20 s for 10 min at 37°C using a plate-reader. Linear nitrocefin conversion rates were plotted to obtain IC50 values by non-linear regression with variable slope using GraphPad Prism 10.4 software. Assays were performed at least as duplicate determinations in biological triplicate.
# SA AgrC-II = SA AgrC-II (Staphylococcus aureus, UniProt O33587); test: β-Lactamase assay, reporter strain RN10829 (P2-agrA:P3-blaZ) with pagrC-II; assay type: cell-based; settings: for IC50, SA AgrC-II, b-lactamase assay: 100 nM cognate AIP, ± SEM, -b = no inhibition recorded at the highest AIP concentration tested, -a = only partial inhibition observed, this study (curves in Fig. S20)
# Source text: (§1) The β-lactamase reporter strain RN10829 (P2-agrA:P3-blaZ) ([62]), with pagrC-I ([63]), pagrC-II, pagrC-III, or pagrC-IV ([11]), substituting the native agr locus with a chromosomal integration of P2-agrA and P3-blaZ and a plasmid from which a wild-type variant of the corresponding AgrC is expressed, was used to assess inhibition and activation of the AgrC receptor via β-lactamase activity in response to varying concentrations of the QS modulating peptides. Overnight cultures of the reporter strains in TSB medium were diluted 1:250 in fresh TSB medium and grown to OD600 = 0.35–0.40 (early exponential phase) at 37°C. Peptide solutions (10 μL) in 1:10 serial dilutions from DMSO stock solutions (1 mM) in TSB medium (final concentrations = 10 μM–10 pM) were added to each well of a clear 96-well plate as well as solutions (10 μL) of cognate AIP (final concentration = 100 nM) in TSB medium followed by 80 μL of bacterial cells. Control wells for 100% β-lactamase activity were wells replacing peptide solution with TSB media (10 μL), and control wells for 0% β-lactamase activity were wells replacing both peptide and cognate AIP solutions with TSB medium (20 μL). The 96-well plates were incubated at 37°C shaking at 200 rpm for 1 h and immediately frozen down at −80°C to minimize growth during nitrocefin treatment. Next, the 96-well plates were thawed, and OD600 values were determined using a plate reader followed by the addition of 50 μL of nitrocefin solution to the wells (final concentration = 33.3 μg/mL). β-Lactamase activity was monitored at OD486 every 20 s for 10 min at 37°C using a plate-reader. Linear nitrocefin conversion rates were plotted to obtain IC50 values by non-linear regression with variable slope using GraphPad Prism 10.4 software. Assays were performed at least as duplicate determinations in biological triplicate.
# SA AgrC-III = SA AgrC-III (Staphylococcus aureus, UniProt O33590); test: β-Lactamase assay, reporter strain RN10829 (P2-agrA:P3-blaZ) with pagrC-III; assay type: cell-based; settings: for IC50, SA AgrC-III, b-lactamase assay: 100 nM cognate AIP, ± SEM, -b = no inhibition recorded at the highest AIP concentration tested, -a = only partial inhibition observed, this study (curves in Fig. S21)
# Source text: as §1
# SA AgrC-IV = SA AgrC-IV (Staphylococcus aureus, UniProt Q309Z2); test: β-Lactamase assay, reporter strain RN10829 (P2-agrA:P3-blaZ) with pagrC-IV; assay type: cell-based; settings: for IC50, SA AgrC-IV, b-lactamase assay: 100 nM cognate AIP, ± SEM, -b = no inhibition recorded at the highest AIP concentration tested, -a = only partial inhibition observed, this study (curves in Fig. S22)
# Source text: as §1
# S. aureus agr-II = S. aureus agr-II (Staphylococcus aureus, UniProt O33587); test: cell-based
# Experimental: (§2) Peptides were evaluated for the ability to interfere with agr-mediated quorum sensing in S. aureus (AH1677, AH430, AH1747, and AH1872 for agr-I–IV, respectively) ([40]) using reporter strains expressing yellow fluorescent protein (YFP) upon agr activation. Interference with agr-mediated quorum sensing in S. epidermidis (AH3408, AH3623, and AH3409 for agr-I–III, respectively) ([45]), and S. lugdunensis (AH4031 for agr-I) ([37]) was evaluated using reporter strains expressing superfolder green fluorescent protein (sGFP) upon agr activation. Overnight cultures of the reporter strains were grown in TSB medium containing chloramphenicol (CAM, 10 μg/mL for S. aureus) or erythromycin (ERM, 10 μg/mL of S. epidermidis and S. lugdunensis) and diluted 1:100 in fresh TSB medium containing the same antibiotic. Assays were performed in sterile black 96-well plates with a clear bottom. […] DMSO stock solutions of peptides (1 mM) were diluted in TSB media and added (15 μL) in technical triplicate to the 96-well plate, followed by diluted bacterial overnight cultures (135 μL). Control wells for 100% agr activity were wells replacing the peptide solution with TSB medium (15 μL). […] Wells containing 150 μL TSB medium were used to measure background fluorescence. The 96-well plates were incubated in a humidified incubator at 37°C shaking at 1,000 rpm for 22–24 h and fluorescence (for GFP: excitation 479 nm, emission 520 nm; for YFP: excitation 500 nm, emission 541 nm; automatic gain), and OD600 values were subsequently measured using a plate reader. Background fluorescence was subtracted from all wells and further normalized to the corresponding OD600 value of the respective wells. The average fluorescence of control wells was used as a relative measure for 100% activation of the agr-circuit, and bar graphs were generated using GraphPad Prism 10.4 software. All assays were performed in at least a biological duplicate.
# (§3) Overnight cultures of the reporter strains were grown in TSB medium containing chloramphenicol (CAM, 10 μg/mL for S. aureus) or erythromycin (ERM, 10 μg/mL of S. epidermidis and S. lugdunensis) and diluted 1:100 in fresh TSB medium containing the same antibiotic. Assays were performed in sterile black 96-well plates with clear bottoms. Peptide solutions (15 μL) in 1:5 serial dilutions from DMSO stock solutions (1 mM) in TSB medium were added to the 96-well plate in technical duplicate followed by diluted bacterial overnight cultures (135 μL). Control wells for 100% agr activity were wells replacing the peptide solution with TSB medium (15 μL). Wells containing 150 μL TSB medium were used to measure background fluorescence. The 96-well plates were incubated in a humidified incubator at 37°C shaking at 1,000 rpm for 22–24 h and fluorescence (for GFP: excitation 479 nm, emission 520 nm; for YFP: excitation 500 nm, emission 541 nm; automatic gain), and OD600 values were subsequently measured using a plate reader. Background fluorescence was subtracted from all wells and further normalized to the corresponding OD600 value of the respective wells. The average fluorescence of control wells was used as a relative measure for 100% activation of the agr-circuit. Relative agr activity was plotted to obtain IC50 values by non-linear regression with variable slope using GraphPad Prism 10.4 software. All assays were performed in biological triplicate.
# S. aureus agr-IV = S. aureus agr-IV (Staphylococcus aureus, UniProt Q309Z2); test: cell-based; assay type: cell-based; settings: fluorescent reporter strain; peptides tested at 1000, 50, 2.5, 0.125 nM or in dose-response
# Experimental: as §2, §3
# S. epidermidis agr-III = S. epidermidis agr-III (Staphylococcus epidermidis, UniProt Q8VSX2); test: cell-based; assay type: cell-based
# Experimental: as §2, §3
# S. aureus (SA) agr-II = settings: fluorescence, cited from earlier work
# S. aureus (SA) agr-III = settings: fluorescence, cited from earlier work
# S. aureus (SA) agr-IV = settings: fluorescence, cited from earlier work
# S. epidermidis agr-II = S. epidermidis agr-II (Staphylococcus epidermidis, UniProt Q8VSX5); test: cell-based; assay type: cell-based; settings: fluorescent reporter strain; peptides tested at 1000, 50, 2.5, 0.125 nM or in dose-response
# Experimental: as §2, §3
# [1] = tested on: S. epidermidis (SE) agr-I; settings: fluorescence, cited from earlier work
# [2] = tested on: S. epidermidis (SE) agr-II; settings: fluorescence; from supernatant; ref (18); cited from earlier work
# [3] = tested on: S. epidermidis (SE) agr-III; settings: fluorescence; from supernatant; ref (18); cited from earlier work
# S. aureus (SA) agr-I = settings: fluorescence; ref (15); cited from earlier work
# Chain of SA AgrC-III (O33590 entry or part of it): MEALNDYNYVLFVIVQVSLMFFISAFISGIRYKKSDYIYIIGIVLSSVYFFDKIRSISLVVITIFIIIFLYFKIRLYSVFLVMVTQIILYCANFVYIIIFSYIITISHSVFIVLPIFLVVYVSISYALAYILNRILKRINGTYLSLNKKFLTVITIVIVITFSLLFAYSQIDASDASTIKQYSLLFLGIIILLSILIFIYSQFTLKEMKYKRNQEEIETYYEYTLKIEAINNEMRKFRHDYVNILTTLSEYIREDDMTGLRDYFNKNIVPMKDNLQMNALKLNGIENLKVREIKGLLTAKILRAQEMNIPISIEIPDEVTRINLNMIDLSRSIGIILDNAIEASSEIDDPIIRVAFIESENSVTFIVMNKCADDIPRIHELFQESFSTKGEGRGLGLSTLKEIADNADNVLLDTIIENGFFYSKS
# Chain of SA AgrC-II (O33587 entry or part of it): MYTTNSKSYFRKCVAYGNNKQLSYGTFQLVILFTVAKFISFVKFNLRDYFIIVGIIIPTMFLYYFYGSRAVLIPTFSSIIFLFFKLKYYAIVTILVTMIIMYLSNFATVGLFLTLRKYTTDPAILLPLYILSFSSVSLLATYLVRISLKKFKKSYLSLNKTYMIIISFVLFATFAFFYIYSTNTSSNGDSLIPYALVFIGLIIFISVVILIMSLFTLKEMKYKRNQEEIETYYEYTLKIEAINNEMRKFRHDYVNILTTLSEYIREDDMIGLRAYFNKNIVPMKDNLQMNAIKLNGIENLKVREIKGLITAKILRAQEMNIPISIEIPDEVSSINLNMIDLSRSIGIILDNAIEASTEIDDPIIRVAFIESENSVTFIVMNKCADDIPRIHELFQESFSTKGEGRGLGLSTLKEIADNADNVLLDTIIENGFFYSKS
# Chain of SA AgrC-I (O07911 entry or part of it): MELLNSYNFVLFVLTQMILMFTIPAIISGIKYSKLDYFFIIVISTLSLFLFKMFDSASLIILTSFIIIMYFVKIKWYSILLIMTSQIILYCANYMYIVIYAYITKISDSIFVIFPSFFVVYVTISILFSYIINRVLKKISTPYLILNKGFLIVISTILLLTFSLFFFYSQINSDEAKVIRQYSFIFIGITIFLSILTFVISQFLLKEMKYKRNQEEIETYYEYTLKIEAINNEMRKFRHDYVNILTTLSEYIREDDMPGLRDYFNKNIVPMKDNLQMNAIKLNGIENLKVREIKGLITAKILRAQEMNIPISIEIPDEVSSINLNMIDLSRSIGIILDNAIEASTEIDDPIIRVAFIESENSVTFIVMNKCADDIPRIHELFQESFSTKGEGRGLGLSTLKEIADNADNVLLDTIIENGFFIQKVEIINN
# Chain of SA AgrC-IV (Q309Z2 entry or part of it): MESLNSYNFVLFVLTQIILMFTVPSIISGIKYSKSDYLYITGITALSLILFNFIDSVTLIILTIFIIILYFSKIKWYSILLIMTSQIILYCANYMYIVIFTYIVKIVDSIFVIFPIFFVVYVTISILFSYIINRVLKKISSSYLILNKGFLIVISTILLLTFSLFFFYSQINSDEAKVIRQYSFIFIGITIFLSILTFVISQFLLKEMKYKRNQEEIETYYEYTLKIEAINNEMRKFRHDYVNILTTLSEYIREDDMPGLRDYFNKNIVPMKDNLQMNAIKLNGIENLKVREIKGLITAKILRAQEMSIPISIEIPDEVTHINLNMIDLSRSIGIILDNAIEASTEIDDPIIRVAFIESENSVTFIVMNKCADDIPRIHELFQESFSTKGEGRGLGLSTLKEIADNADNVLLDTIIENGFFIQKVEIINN
# Chain of S. epidermidis agr-III (Q8VSX2 entry or part of it): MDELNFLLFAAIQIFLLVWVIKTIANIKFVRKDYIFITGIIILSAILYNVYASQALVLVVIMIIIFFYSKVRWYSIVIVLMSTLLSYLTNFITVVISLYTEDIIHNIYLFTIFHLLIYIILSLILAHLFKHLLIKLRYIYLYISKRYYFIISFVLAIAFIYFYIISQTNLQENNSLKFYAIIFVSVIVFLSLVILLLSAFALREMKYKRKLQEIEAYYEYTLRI
# Chain of S. aureus agr-II (O33587 entry or part of it): as the sequence (O33587 entry or part of it) above
# Chain of S. epidermidis agr-II (Q8VSX5 entry or part of it): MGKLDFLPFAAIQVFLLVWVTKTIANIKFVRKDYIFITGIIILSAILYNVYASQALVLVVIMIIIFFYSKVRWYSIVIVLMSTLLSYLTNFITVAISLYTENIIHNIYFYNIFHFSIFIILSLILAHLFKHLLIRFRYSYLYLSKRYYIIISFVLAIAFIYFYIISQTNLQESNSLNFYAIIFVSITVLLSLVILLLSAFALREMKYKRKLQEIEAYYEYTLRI
# Chain of S. aureus agr-IV (Q309Z2 entry or part of it): as the sequence (Q309Z2 entry or part of it) above
SMILES,IC50 (SA AgrC-I),"IC50, SA AgrC-II, b-lactamase assay (SA AgrC-II)",IC50 (SA AgrC-III),IC50 (SA AgrC-IV),IC50 (SA AgrC-II),"IC50, SA AgrC-IV, b-lactamase assay (SA AgrC-IV)","IC50, SA AgrC-III, b-lactamase assay (SA AgrC-III)",also measured
"C[C@H](N)C(=O)N[C@@H](CC(N)=O)C(=O)N1CCC[C@H]1C(=O)N[C@H]1CSC(=O)[C@H](Cc2ccccc2)NC(=O)[C@H](Cc2ccc(O)cc2)NC(=O)CNC(=O)[C@H](C)NC1=O [compound 21, S. pasteuri AIP-I] (H-ANPCAGYF; thioester 4-C)",155 ± 34 nM,-b,191 ± 18 nM,> 1000 nM,,,,
"CC(C)C[C@H](NC(=O)[C@H](C)NC(=O)CNC(=O)[C@H](C)NC(=O)[C@@H](NC(=O)[C@H](C)N)[C@@H](C)O)C(=O)N1CCC[C@H]1C(=O)N[C@H]1CSC(=O)[C@H](Cc2ccccc2)NC(=O)[C@H](Cc2ccccc2)NC(=O)CNC(=O)CNC1=O [compound 23, S. succinus AIP-I] (H-ATAGALPCGGFF; thioester 8-C)",117 ± 26 nM,,> 1000 nM,> 1000 nM,854 ± 65 nM,,,
"CC[C@H](C)[C@H](NC(=O)[C@@H](N)CC(=O)O)C(=O)N[C@H]1CSC(=O)[C@H](Cc2ccccc2)NC(=O)[C@H](Cc2ccc(O)cc2)NC(=O)[C@H](C)NC(=O)[C@H](CC(N)=O)NC1=O [compound 8, S. lugdunensis AIP-I] (H-DICNAYF; thioester 3-C; N-terminus assumed)",,-b,> 1000 nM,,,-b,,"IC50 (S. aureus agr-II): 234 nM; QS interaction in words (inhibition / activation), S. aureus agr-IV (S. aureus agr-IV): no effect at 1000 nM; IC50 (S. epidermidis agr-III): 66.8 ± 2.9 nM; IC50 (S. aureus (SA) agr-II; ref (10)): 419 nM; IC50 (S. aureus (SA) agr-III; ref (10)): 36.6 nM; IC50 (S. aureus (SA) agr-IV; ref (10)): > 1000 nM"
"CC[C@H](C)[C@H](NC(=O)[C@@H](N)[C@@H](C)O)C(=O)N[C@@H](CO)C(=O)N[C@@H](CO)C(=O)N[C@H](C(=O)N[C@@H](CCCCN)C(=O)N1CCC[C@H]1C(=O)N[C@H]1CSC(=O)[C@H](C(C)C)NC(=O)[C@H](Cc2ccccc2)NC(=O)CNC(=O)[C@H]([C@@H](C)O)NC1=O)C(C)C [compound 18, S. cohnii AIP-I] (H-TISSVKPCTGFV; thioester 8-C)",> 10000 nM,-b,,,,-b,-b,
"CC(C)C[C@@H]1NC(=O)[C@H](Cc2ccc(O)cc2)NC(=O)[C@H](CO)NC(=O)[C@H](C)NC(=O)[C@@H](NC(=O)[C@@H]2CCCN2C(=O)[C@H](CC(N)=O)NC(=O)[C@H](Cc2ccc(O)cc2)NC(=O)[C@H](CCCCN)NC(=O)[C@H](C)NC(=O)[C@H](C)NC(=O)[C@@H](N)CC(N)=O)CSC1=O [compound 7, S. epidermidis AIP-III] (H-NAAKYNPCASYL; thioester 8-C)",> 10000 nM,-b,> 10000 nM,,,-b,,"QS interaction in words (inhibition / activation), S. epidermidis agr-II (S. epidermidis agr-II): activator; effect from supernatant (% inhibition, activation or no effect), SE agr-I ([1]; from supernatant, ref (18)): ~ 50%; IC50 ([1]; ref (11)): 34.3 nM; effect from supernatant (% inhibition, activation or no effect), SE agr-II [2]: no effect; effect from supernatant (% inhibition, activation or no effect), SE agr-III [3]: activation"
"C[C@@H](O)[C@H](NC(=O)[C@H](CO)NC(=O)[C@@H](N)Cc1ccc(O)cc1)C(=O)N[C@H]1CSC(=O)[C@H](Cc2ccccc2)NC(=O)[C@H](Cc2ccc(O)cc2)NC(=O)[C@H](Cc2ccc(O)cc2)NC(=O)[C@H](CO)NC1=O [compound 20, S. caprae AIP-I] (H-YSTCSYYF; thioester 4-C)",5.7 ± 0.8 nM,,,199 ± 19 nM,252 ± 44 nM,,-a,IC50 (S. aureus (SA) agr-I): 0.6 ± 0.02 nM; IC50 (S. aureus (SA) agr-II; ref (15)): 0.26 ± 0.08 nM; IC50 (S. aureus (SA) agr-III; ref (15)): 0.2 nM; IC50 (S. aureus (SA) agr-IV; ref (15)): 8.98 ± 0.32 nM
